What was measured:
Assay in all cases: kinome screen (33PanQinase)
Format in all cases: biochemical
HRI = biological target: T1, HRI (Homo sapiens, UniProt Q9BQI3)
T1 construct: purchased Reaction Biology Europe GmbH (formerly ProQinase)
Experimental: (§1) The Kinome Screening was performed by Reaction Biology Europe GmbH (http://reactionbiology.com; Freiburg i. Br., Germany).

ACVR2B = biological target: T2, ACVR2B (Homo sapiens, UniProt Q13705)
T2 construct: purchased Reaction Biology Europe GmbH (formerly ProQinase)
Experimental: as §1

FGFR4 = biological target: T3, FGFR4 (Homo sapiens, UniProt P22455)
T3 construct: purchased Reaction Biology Europe GmbH (formerly ProQinase)
Experimental: as §1

FGFR2 = biological target: T4, FGFR2 (Homo sapiens, UniProt P21802)
T4 construct: purchased Reaction Biology Europe GmbH (formerly ProQinase)
Experimental: as §1

CAMK1D = biological target: T5, CAMK1D (Homo sapiens, UniProt Q8IU85)
T5 construct: purchased Reaction Biology Europe GmbH (formerly ProQinase)
Experimental: as §1

TXK = biological target: T6, TXK (Homo sapiens, UniProt P42681)
T6 construct: purchased Reaction Biology Europe GmbH (formerly ProQinase)
T6 sequence (P42681 1-527): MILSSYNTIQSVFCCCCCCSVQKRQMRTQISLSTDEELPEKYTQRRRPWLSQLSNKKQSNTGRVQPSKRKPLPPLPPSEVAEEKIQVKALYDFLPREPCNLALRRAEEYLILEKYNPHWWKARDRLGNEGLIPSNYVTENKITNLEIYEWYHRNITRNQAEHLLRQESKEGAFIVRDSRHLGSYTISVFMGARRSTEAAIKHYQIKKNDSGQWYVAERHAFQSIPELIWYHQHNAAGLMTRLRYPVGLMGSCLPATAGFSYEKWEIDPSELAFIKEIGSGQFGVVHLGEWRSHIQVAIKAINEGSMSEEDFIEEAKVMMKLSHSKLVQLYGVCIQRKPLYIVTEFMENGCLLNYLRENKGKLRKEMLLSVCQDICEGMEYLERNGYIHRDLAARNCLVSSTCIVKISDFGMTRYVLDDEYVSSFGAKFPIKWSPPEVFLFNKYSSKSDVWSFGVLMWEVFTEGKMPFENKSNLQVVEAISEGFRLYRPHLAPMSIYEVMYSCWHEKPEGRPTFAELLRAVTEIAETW
Experimental: as §1

PKCγ = biological target: T7, PKCγ (Homo sapiens, UniProt P05129)
T7 construct: purchased Reaction Biology Europe GmbH (formerly ProQinase)
Experimental: as §1

p38Δ = biological target: T8, p38Δ (Homo sapiens, UniProt O15264)
T8 construct: purchased Reaction Biology Europe GmbH (formerly ProQinase)
T8 sequence (O15264 1-365): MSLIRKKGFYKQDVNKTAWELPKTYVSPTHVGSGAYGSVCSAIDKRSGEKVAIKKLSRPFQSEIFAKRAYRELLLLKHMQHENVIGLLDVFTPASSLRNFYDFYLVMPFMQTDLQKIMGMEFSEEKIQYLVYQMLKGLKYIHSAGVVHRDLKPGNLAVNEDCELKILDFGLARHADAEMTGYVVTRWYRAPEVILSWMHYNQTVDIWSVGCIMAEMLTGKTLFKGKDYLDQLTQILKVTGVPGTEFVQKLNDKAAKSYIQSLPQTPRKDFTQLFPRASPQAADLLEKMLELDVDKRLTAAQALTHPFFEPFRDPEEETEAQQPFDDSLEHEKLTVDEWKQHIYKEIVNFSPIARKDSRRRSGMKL
Experimental: as §1

GSG2 = biological target: T9, GSG2 (Homo sapiens, UniProt Q8TF76)
T9 construct: purchased Reaction Biology Europe GmbH (formerly ProQinase)
T9 sequence (Q8TF76 1-798): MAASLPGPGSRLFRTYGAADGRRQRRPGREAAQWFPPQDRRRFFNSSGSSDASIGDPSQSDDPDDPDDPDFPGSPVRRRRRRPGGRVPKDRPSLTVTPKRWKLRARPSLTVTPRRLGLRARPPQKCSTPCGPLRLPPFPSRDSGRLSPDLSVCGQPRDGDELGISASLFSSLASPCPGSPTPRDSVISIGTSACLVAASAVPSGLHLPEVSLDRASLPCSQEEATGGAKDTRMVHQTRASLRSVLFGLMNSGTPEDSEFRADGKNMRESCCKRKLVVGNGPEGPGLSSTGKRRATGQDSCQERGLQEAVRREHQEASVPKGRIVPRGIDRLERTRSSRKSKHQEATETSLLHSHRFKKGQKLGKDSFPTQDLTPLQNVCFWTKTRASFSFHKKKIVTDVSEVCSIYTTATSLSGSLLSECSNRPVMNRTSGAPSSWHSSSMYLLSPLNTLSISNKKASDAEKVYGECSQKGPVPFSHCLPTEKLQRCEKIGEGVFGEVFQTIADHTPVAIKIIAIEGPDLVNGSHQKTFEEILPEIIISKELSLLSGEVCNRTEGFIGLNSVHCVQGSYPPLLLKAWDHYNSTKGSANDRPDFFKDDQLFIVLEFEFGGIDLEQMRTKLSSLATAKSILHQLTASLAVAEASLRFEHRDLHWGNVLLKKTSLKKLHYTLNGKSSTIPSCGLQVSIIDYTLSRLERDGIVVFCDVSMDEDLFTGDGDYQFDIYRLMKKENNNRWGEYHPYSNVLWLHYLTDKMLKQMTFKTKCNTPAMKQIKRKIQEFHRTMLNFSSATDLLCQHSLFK
Experimental: as §1

MTOR = biological target: T10, MTOR (Homo sapiens, UniProt P42345)
T10 construct: purchased Reaction Biology Europe GmbH (formerly ProQinase)
Experimental: as §1

SRC = biological target: T11, SRC (Homo sapiens, UniProt P12931)
T11 construct: purchased Reaction Biology Europe GmbH (formerly ProQinase)
Experimental: as §1

SIK2 = biological target: T12, SIK2 (Homo sapiens, UniProt Q9H0K1)
T12 construct: purchased Reaction Biology Europe GmbH (formerly ProQinase)
Experimental: as §1

MINK1 = biological target: T13, MINK1 (Homo sapiens, UniProt Q8N4C8)
T13 construct: purchased Reaction Biology Europe GmbH (formerly ProQinase)
Experimental: as §1

PDGFRα = biological target: T14, PDGFRα (Homo sapiens, UniProt P16234)
T14 construct: purchased Reaction Biology Europe GmbH (formerly ProQinase)
Experimental: as §1

T1 sequence (Q9BQI3 whole entry): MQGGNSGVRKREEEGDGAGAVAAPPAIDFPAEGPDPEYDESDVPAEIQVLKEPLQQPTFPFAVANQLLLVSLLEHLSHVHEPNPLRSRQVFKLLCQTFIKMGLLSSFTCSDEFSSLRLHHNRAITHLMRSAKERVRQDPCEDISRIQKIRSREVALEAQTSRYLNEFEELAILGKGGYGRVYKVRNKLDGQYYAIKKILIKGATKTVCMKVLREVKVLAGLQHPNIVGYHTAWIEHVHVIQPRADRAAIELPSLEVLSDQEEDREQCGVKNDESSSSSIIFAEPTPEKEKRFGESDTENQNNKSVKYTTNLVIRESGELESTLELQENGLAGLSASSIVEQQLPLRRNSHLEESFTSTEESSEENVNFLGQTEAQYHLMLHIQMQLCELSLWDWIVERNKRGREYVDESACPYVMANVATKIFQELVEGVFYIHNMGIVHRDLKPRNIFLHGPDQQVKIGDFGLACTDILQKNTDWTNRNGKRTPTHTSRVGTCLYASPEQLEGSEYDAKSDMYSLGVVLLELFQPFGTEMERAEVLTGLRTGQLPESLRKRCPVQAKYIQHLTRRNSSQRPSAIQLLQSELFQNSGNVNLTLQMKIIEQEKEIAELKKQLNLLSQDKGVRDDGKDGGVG
T12 sequence (Q9H0K1 whole entry): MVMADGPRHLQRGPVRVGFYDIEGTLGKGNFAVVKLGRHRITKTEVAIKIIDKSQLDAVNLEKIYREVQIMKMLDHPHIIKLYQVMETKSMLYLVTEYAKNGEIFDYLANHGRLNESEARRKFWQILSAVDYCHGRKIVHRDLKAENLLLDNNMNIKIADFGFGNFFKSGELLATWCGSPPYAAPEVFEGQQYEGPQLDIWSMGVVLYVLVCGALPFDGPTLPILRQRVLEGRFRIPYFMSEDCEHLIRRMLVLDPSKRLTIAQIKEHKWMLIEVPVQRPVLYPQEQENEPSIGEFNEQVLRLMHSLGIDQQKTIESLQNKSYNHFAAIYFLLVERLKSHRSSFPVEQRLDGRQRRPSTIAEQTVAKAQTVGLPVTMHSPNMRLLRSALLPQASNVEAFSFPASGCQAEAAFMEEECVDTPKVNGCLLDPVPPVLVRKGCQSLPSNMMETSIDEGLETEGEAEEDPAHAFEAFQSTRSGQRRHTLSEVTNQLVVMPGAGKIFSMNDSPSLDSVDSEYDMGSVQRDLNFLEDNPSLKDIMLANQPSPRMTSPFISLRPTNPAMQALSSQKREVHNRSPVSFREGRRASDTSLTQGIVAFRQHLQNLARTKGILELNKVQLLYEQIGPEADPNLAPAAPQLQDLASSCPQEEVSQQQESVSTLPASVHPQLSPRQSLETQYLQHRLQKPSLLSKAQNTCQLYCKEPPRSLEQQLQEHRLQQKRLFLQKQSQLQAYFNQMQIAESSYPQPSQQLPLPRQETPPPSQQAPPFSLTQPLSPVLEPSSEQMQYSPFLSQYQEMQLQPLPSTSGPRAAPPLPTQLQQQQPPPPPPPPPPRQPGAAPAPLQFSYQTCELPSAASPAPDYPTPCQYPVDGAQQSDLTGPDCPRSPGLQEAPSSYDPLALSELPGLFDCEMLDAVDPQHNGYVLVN
T5 sequence (Q8IU85 whole entry): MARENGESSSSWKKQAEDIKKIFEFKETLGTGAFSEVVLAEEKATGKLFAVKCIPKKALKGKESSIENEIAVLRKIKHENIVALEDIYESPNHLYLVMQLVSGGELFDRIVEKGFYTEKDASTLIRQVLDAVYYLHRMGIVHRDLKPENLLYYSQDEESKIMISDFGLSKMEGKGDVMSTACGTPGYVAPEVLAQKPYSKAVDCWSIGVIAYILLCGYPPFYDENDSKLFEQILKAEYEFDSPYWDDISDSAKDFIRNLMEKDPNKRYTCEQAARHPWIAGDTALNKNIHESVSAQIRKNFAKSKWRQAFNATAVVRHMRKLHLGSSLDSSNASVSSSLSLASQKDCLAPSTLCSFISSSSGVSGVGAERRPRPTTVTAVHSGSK
T2 sequence (Q13705 19-512): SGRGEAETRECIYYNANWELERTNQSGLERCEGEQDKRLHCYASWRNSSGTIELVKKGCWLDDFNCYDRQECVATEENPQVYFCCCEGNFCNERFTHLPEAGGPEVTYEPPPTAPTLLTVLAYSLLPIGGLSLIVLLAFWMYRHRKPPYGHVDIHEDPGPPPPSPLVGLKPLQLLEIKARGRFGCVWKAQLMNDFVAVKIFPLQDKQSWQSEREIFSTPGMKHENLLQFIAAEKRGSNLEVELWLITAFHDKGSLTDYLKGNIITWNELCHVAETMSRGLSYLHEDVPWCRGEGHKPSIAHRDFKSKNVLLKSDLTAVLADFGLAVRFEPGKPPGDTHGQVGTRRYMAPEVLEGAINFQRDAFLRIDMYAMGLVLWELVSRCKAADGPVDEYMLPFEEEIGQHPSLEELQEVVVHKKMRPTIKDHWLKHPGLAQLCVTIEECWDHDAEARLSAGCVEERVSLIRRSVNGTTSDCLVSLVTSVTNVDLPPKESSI
T13 sequence (Q8N4C8 whole entry): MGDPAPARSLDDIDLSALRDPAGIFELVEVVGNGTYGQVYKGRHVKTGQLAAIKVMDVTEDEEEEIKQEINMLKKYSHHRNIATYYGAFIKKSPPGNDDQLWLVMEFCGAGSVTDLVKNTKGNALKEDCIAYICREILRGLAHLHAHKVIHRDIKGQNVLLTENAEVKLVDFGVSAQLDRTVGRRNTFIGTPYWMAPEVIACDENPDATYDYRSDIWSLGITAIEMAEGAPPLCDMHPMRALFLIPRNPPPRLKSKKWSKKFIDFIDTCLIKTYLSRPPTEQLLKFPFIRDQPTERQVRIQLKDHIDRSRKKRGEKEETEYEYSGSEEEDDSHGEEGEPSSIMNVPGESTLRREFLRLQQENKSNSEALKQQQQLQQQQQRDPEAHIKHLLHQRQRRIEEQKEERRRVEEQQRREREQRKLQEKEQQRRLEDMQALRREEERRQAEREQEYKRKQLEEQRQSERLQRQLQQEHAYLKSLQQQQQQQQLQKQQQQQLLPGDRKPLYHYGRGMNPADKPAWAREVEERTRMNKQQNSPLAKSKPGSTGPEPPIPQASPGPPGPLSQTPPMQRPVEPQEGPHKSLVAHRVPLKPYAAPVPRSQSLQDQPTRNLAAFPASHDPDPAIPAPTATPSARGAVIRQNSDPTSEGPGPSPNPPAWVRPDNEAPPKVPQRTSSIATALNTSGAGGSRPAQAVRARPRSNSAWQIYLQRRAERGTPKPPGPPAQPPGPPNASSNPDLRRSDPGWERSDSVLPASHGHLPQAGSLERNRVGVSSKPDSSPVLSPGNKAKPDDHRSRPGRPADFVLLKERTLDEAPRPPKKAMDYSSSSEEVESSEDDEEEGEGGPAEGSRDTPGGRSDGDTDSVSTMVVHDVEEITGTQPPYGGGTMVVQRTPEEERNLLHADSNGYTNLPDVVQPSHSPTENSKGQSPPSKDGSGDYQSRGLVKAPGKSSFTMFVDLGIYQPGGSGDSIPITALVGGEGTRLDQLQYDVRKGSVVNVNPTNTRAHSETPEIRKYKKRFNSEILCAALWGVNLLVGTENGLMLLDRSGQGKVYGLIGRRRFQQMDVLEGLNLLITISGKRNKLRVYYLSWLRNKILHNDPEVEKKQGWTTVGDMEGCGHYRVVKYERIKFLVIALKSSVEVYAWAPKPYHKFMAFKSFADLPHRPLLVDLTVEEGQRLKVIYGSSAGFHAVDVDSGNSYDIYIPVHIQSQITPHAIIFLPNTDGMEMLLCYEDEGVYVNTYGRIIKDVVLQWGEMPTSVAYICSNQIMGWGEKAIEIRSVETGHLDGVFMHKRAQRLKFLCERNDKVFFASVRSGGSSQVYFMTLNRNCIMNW
T11 sequence (P12931 whole entry): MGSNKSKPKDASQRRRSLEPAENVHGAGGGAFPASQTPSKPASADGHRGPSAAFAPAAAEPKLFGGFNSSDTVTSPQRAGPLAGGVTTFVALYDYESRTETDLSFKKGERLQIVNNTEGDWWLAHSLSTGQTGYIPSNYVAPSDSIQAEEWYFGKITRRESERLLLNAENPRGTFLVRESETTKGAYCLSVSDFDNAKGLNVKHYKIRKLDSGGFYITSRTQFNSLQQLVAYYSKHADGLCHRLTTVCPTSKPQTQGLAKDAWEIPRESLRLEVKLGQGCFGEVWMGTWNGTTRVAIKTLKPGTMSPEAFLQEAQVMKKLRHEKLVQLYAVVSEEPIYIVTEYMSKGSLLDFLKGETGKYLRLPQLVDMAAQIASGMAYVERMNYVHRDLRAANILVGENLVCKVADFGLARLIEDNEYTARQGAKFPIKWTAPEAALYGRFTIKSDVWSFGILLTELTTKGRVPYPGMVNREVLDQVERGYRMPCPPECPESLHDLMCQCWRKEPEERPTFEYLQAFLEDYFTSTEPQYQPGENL

Row | Compound | residual kinase activity (HRI; 0.3 µM) | residual kinase activity (ACVR2B; 0.3 µM) | residual kinase activity (FGFR4; 0.3 µM) | residual kinase activity (FGFR2; 0.3 µM) | residual kinase activity (CAMK1D; 0.3 µM) | residual kinase activity (TXK; 0.3 µM) | residual kinase activity (PKCγ; 0.3 µM) | residual kinase activity (p38Δ; 0.3 µM) | residual kinase activity (GSG2; 0.3 µM) | residual kinase activity (MTOR; 0.3 µM) | residual kinase activity (SRC; 0.3 µM) | residual kinase activity (SIK2; 0.3 µM) | residual kinase activity (MINK1; 0.3 µM) | residual kinase activity (PDGFRα; 0.3 µM) | other results
1 | c1ccc(CNc2cc(-c3c[nH]c4ncccc34)ccn2)cc1 [meriolin 36] | 93 % of control | 22 % of control | 98 % of control | 52 % of control | 70 % of control | 84 % of control | 33 % of control | 59 % of control | 2 % of control | 78 % of control | 88 % of control | 86 % of control | 2 % of control | 25 % of control | residual kinase activity (HRI; 3 µM): 71 % of control; residual kinase activity (ACVR2B; 3 µM): 5 % of control; residual kinase activity (FGFR4; 3 µM): 58 % of control; residual kinase activity (FGFR2; 3 µM): 9 % of control; residual kinase activity (CAMK1D; 3 µM): 38 % of control; residual kinase activity (TXK; 3 µM): 35 % of control; residual kinase activity (PKCγ; 3 µM): 5 % of control; residual kinase activity (p38Δ; 3 µM): 14 % of control; residual kinase activity (GSG2; 3 µM): 0 % of control; residual kinase activity (MTOR; 3 µM): 24 % of control; residual kinase activity (SRC; 3 µM): 24 % of control; residual kinase activity (SIK2; 3 µM): 27 % of control; residual kinase activity (MINK1; 3 µM): 0 % of control; residual kinase activity (PDGFRα; 3 µM): 8 % of control
2 | COc1ccnc2[nH]cc(-c3cc(N)nc(N)c3)c12 [meriolin 16] | 90 % of control | 74 % of control | 87 % of control | 85 % of control | 81 % of control | 90 % of control | 54 % of control | 24 % of control | 0 % of control | 105 % of control | 86 % of control | 102 % of control | 20 % of control | 60 % of control | residual kinase activity (HRI; 0.03 µM): 98 % of control; residual kinase activity (ACVR2B; 0.03 µM): 81 % of control; residual kinase activity (FGFR4; 0.03 µM): 91 % of control; residual kinase activity (FGFR2; 0.03 µM): 94 % of control; residual kinase activity (CAMK1D; 0.03 µM): 102 % of control; residual kinase activity (TXK; 0.03 µM): 100 % of control; residual kinase activity (PKCγ; 0.03 µM): 99 % of control; residual kinase activity (p38Δ; 0.03 µM): 79 % of control; residual kinase activity (GSG2; 0.03 µM): 2 % of control; residual kinase activity (MTOR; 0.03 µM): 91 % of control; residual kinase activity (SRC; 0.03 µM): 95 % of control; residual kinase activity (SIK2; 0.03 µM): 96 % of control; residual kinase activity (MINK1; 0.03 µM): 75 % of control; residual kinase activity (PDGFRα; 0.03 µM): 89 % of control

— article PMC11167047 (Cell Death Discovery, 2024)
